{
  "source": "patent US8822541B2",
  "about": "“Use of targeted nitroxide agents in mitigating or treating radiation injury” (University of Pittsburgh—Of the Commonwealth System of …, priority 2008, dated 2014)",
  "key": {"[1]": {"test_system": "Ercc1−/Δ mice", "settings": "parental compound, comparison statement; cited from earlier work"}, "[2]": {"test_system": "32D cl 3 cells", "test": "EPR-based analysis of nitroxide distribution and partitioning in subcellular fractions", "assay_type": "cell-based, mouse", "settings": "flask or pelleted, 10 μM, 1 h", "method": "To determine nitroxide partitioning and distribution in subcellular compartments, electron paramagnetic resonance (EPR) was utilized. 32D cl 3 cells were incubated for 24 h under pelleted or flask growth conditions. After incubation, 150×10^6 cells were resuspended at a concentration of 10×10^6 cells/mL and were treated with 10 μM JP4-039 or 10 μM TEMPO for 1 h (Wipf P, et al., Mitochondrial targeting of selective electron scavengers: synthesis and biological analysis of hemigramicidin-TEMPO conjugates. J Am Chem. Soc. 127: 12460-12461, 2005).\nSubcellular compartments were isolated by differential centrifugation. Cells were centrifuged at 1500 RPM for 10 min and the supernatant (media) was removed. The remaining whole cell pellet was washed with cold PBS, resuspended in 0.3 mL of hypotonic buffer solution, and incubated on ice for 45 min. Cells were then lysed by three rapid freeze-thaw cycles in liquid nitrogen for 30 sec and water at 25° C. for 3 min. Lysed cells were centrifuged at 3000×g for 5 min to isolate nucleus and cellular debris. Supernatant was centrifuged at 12000×g for 45 min to isolate mitochondria from cytoplasm (Wipf P, et al., Mitochondrial targeting of selective electron scavengers: synthesis and biological analysis of hemigramicidin-TEMPO conjugates. J Am Chem. Soc. 127: 12460-12461, 2005).\nEach cellular fraction (media, whole cell pellet, nucleus/cellular debris, mitochondria, and cytoplasm) was mixed with DMSO (1:1 vol/vol) and 2 mM of potassium ferricyanide (K3Fe(CN)6) to convert […] to EPR-detectable radical forms (Behringer W, et al., Antioxidant Tempol enhances hypothermic cerebral preservation during prolonged cardiac arrest in dogs. J Cereb Blood Flow Metab. 22: 105-117, 2002). 70 μL of the homogenate was loaded into Teflon tubing (0.8 mm internal diameter) (Alpha Wire Corp., Elizabeth, N.J.) which was folded in half and placed into an open ESR quartz tube (inner diameter of 3.0 mm). EPR measurements were made in triplicate using a JEOL-RE1X EPR spectrometer (Jeol, Tokyo, Japan) under the following conditions: 334.7 mT center field, 5 mT sweep width, 0.079 mT field modulation, 20 mW microwave power, 0.1 sec time constant, and 2 min scan time at 22.5° C. Utilizing signal magnitude and isolated volumes, amount and concentration of JP4-039 or TEMPO were calculated for each sample."}, "[3]": {"test_system": "32D cl 3 cells", "test": "Clonogenic radiation survival curves of 32D cl 3 cells (PLDR study)", "assay_type": "cell-based, mouse", "set-up": "key to D0: D0 in Gy, from single-hit multitarget model", "method": "(§1) 32D cl 3 cells were resuspended at 1×10^5 cells/mL in 10×100-mm tubes and divided into three groups: radiation only, post-irradiation treatment with 10 μM JP4-039, and post-irradiation treatment with 10 μM TEMPO. Cells were irradiated to doses ranging from 0 to 8 Gy and were plated immediately after irradiation.\nas §1, with “5×10^5” for “1×10^5”, “then incubated in exponentially growing colonies (flasks) for 24, 48 and 72 h in a high-humidity incubator at 37° C. with 95% air/5% CO2.” for “plated immediately after irradiation.”\n32D cl 3 cells were resuspended at 5×10^5 cells/mL in 10×100-mm tubes. Cells were irradiated to doses ranging from 0 to 8 Gy and were then centrifuged at 1500 RPM for 10 minutes and incubated in vertical tubes held tight in pellets with a total of 5×10^5 cells/pellet for 24, 48 and 72 h in a high-humidity incubator at 37° C. with 95% air/5% CO2.\nCells incubated under either logarithmic or PLDR conditions were resuspended at 24, 48 and 72 h after irradiation, and cell viability was assessed using an automated cell viability counter (Beckman Coulter, Fullerton, Calif.). Subsequently, at 24, 48, 72 h, cells in pellets and flasks were resuspended and treated with 10 μM JP4-039, 10 μM TEMPO, or no treatment and were plated in triplicate in semisolid methylcellulose-containing medium at viable cell concentrations ranging from 500-40,000 cells/mL. Cells were incubated in a high-humidity incubator at 37° C. with 95% air/5% CO2 for 7 d and colonies of greater than 50 cells were scored according to published methods (Epperly M W, Gretton J E, Sikora C A, Jefferson M, Bernarding M, Nie S, et al.: Mitochondrial localization of superoxide, dismutase is required for decreasing radiation-induced cellular damage. Radiat Res. 160: 568-578, 2003).\nData from radiation survival curves were analyzed using the linear-quadratic and single-hit, multitarget models (Epperly M, et al., Prevention of late effects of irradiation lung damage by manganese superoxide dismutase gene therapy. Gene Ther. 5: 196-208, 1998). Results are presented as the mean±standard error of the mean from at least three measurements. Student's t test and two-way ANOVA were used to compare means of different groups where appropriate."}, "[4]": {"settings": "0 hours, 10 μM post-irradiation"}},
  "data": [
    {"compound": "CC1(C)CCCC(C)(C)N1[O]", "note": "[TEMPO, 2,2,6,6-tetramethylpiperidine-N-oxyl, reference compound]", "values": [
      {"measurement": "body weight", "setting": "[1]", "value": "cause weight loss"},
      {"measurement": "nitroxide signal in whole cell pellet and subcellular fractions", "setting": "[2]", "value": "below the detectable threshold"},
      {"measurement": "D0", "setting": "[3]; [4]", "value": "1.04 ± 0.07"},
      {"measurement": "Ñ", "setting": "[3]; [4]", "value": "8.23±4.35"},
      {"measurement": "radiation mitigation", "setting": "[3]; 48 or 72 h after irradiation", "value": "no statistically significant radiation mitigation"},
      {"measurement": "D0", "setting": "[3]; 24 hours (Flask), 10 μM", "value": "1.26 ± 0.11"},
      {"measurement": "Ñ", "setting": "[3]; 24 hours (Flask), 10 μM", "value": "8.86 ± 6.69"},
      {"measurement": "D0", "setting": "[3]; 24 hours (Pellet), 10 μM", "value": "1.13 ± 0.19"},
      {"measurement": "Ñ", "setting": "[3]; 24 hours (Pellet), 10 μM", "value": "7.59±1.71"}
    ]}
  ]
}
